Earlier results, collected in US20100120050A1, “Biomarkers For Assessing Altherosclerotic Potential” (ENTELOS, INC., priority 2008, published 2010).

Conditions: clinical trials and post-marketing; cited from earlier work

Cc1c(C(=O)NN2CCCCC2)nn(-c2ccc(Cl)cc2Cl)c1-c1ccc(Cl)cc1 [rimonabant]
effect on plaque endpoints: little observed effect on plaque endpoints
